According to PMC6549035, “CUMYL-4CN-BINACA Is an Efficacious and Potent Pro-Convulsant Synthetic Cannabinoid Receptor Agonist” (Frontiers in Pharmacology, 2019):

Columns and labels:
[1] = molecular target: T1, human CB1 receptor (hCB1) (Homo sapiens, UniProt P21554); experiment: [3H]-CP […] competition radioligand binding on HEK293 membranes
T1 construct: gene CNR1

[2] = molecular target: T2, human CB2 receptor (hCB2) (Homo sapiens, UniProt P34972); experiment: as above
T2 construct: gene CNR2; 3-HA tagged CB2 receptor
T2 sequence (P34972 whole entry): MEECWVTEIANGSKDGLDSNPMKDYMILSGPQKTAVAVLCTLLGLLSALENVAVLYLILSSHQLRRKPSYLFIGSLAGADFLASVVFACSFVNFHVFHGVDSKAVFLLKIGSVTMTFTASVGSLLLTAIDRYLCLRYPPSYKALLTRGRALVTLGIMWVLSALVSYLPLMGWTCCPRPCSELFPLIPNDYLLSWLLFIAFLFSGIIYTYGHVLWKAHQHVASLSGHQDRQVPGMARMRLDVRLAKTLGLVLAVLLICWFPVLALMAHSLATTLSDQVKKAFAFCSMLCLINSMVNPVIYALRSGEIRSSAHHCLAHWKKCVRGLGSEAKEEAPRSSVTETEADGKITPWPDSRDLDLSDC

T1 sequence (P21554 whole entry): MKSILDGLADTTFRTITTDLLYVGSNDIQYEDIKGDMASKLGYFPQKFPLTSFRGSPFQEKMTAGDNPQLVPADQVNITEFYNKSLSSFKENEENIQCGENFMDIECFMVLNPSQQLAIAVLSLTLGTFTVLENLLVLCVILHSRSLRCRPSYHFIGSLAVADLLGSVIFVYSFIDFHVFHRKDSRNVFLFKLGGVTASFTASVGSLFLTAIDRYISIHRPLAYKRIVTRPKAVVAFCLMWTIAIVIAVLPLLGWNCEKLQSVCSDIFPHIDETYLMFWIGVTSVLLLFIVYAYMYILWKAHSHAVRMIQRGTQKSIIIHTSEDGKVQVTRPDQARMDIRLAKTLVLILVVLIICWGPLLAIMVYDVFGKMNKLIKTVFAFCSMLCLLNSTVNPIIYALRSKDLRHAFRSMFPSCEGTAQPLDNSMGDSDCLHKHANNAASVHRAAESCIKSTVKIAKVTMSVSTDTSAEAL

SMILES: CC(C)(NC(=O)c1nn(CCCCC#N)c2ccccc12)c1ccccc1 [compound 1, 1-(4-cyanobutyl)-N-(2-phenylpropan-2-yl)indazole-3-carboxamide]
- Ki [1]: 2.6 nM
- Ki [2]: 14.7 nM
